In general, MIC refers to the lowest concentration that inhibits growth of the organism.

Like-named read-outs stand apart in the source and are kept apart here.

The values below come from patent US4206215A, “Antimicrobial bis-[4-(substituted-amino)-1-pyridinium]alkanes” (Sterling Drug Inc., priority 1977, dated 1980).

The subject of one assay is S. Aureus Smith. Kind of assay: In vitro antibacterial activity, MIC (modified Autotiter method). The note with it: for MIC: Staphylococcus aureus, 20 h, read-out: MIC S. Aureus Smith. Format: cell-based, Staphylococcus aureus. On the procedure:
(§1) The antibacterial and antifungal activity of representative examples of the compounds of Formula I was determined using a modification of the Autotiter method described by Goss, et al. Applied Microbiology 16 (9) 1,414-1,416 (1968) in which a 1,000 mcg./ml. solution of the test compound is prepared. To the first cup of the Autotray is added 0.1 ml. of the test solution. Activation of the Autotiter initiates a sequence of operations by which 0.05 ml. of the test compound solution is withdrawn from the cup by a Microtiter transfer loop and diluted in 0.05 ml. of sterile water. Following this operation, 0.05 ml. of inoculated double-strength semisynthetic medium (glucose) is added automatically to each cup. The overall operation results in final drug concentrations ranging from 500 to 0.06 mcg./ml. in twofold decrements. […] The compounds were thus tested as solutions against a variety of gram positive and gram negative bacteria including Staphylococcus aureus, Proteus mirabilis, Escherichia coli, Klebsiella pneumoniae, Pseudomonas aeruginosa, Streptococcus pyogenes, and against such fungi as Aspergillus niger, Candida albicans and Trichophyton mentagrophytes.

The test system of another assay is E. coli Vogel. The description is as above. The note with it: for MIC: Escherichia coli, 20 h, read-out: MIC E. coli Vogel. Format: cell-based, Escherichia coli. Here is the method: as §1
A further assay relates to K. pneum. 39645. The assay is described as above. Format: cell-based, Klebsiella pneumoniae. The note with it: for MIC: Klebsiella pneumoniae, 20 h, read-out: MIC K. pneum. 39645. On the procedure:
as §1

A further assay concerns P. mirab. MGH-1. Described as above. In kind it is cell-based, Proteus mirabilis. The note with it: for MIC: Proteus mirabilis, 20 h, read-out: MIC P. mirab. MGH-1. On the procedure: as §1
For another assay, the system named is Ps. aerug. MGH-2. The assay is described as above. In kind it is cell-based, Pseudomonas aeruginosa. The note with it: for MIC: Pseudomonas aeruginosa, 20 h, read-out: MIC Ps. aerug. MGH-2. On the procedure:
as §1

The next assay concerns S. pyogen. C203. Described as above. In kind it is cell-based, Streptococcus pyogenes. The note with it: for MIC: Streptococcus pyogenes, 20 h, read-out: MIC S. pyogen. C203. Here is the method:
as §1

A further assay concerns A. niger 16404. In words: In vitro antifungal activity, MIC (modified Autotiter method). The note with it: for MIC: Aspergillus niger, 16404, 20 h, read-out: MIC A. niger 16404. Format: cell-based, Aspergillus niger. Here is the method:
as §1

The subject of the next assay is C. albicans 10231. The description is as above. In kind it is cell-based, Candida albicans. The note with it: for MIC: Candida albicans, 10231, 20 h, read-out: MIC C. albicans 10231. Here is the method: as §1
In a further assay the test system is T. menta. 9129. The description is as above. In kind it is cell-based, Trichophyton mentagrophytes. The note with it: for MIC: Trichophyton mentagrophytes, 20 h, read-out: MIC T. menta. 9129. Here is the method:
as §1

Regarding `Cc1cc(N)cc[n+]1CCCCCCCC[n+]1ccc(N)cc1C` [VIII, 1,8-bis-(4-amino-2-methyl-1-pyridinium)octane dibromide, reference compound], the MIC is 31.3 µg/mL in the assay with S. Aureus Smith; above 250 µg/mL with E. coli Vogel; 500 µg/mL in the assay with K. pneum. 39645; above 500 µg/mL in the assay with P. mirab. MGH-1; above 500 µg/mL in the assay with Ps. aerug. MGH-2; 7.8 µg/mL with S. pyogen. C203. Moreover, the MIC with A. niger 16404 turned out to be 125 µg/mL; in the assay on C. albicans 10231, 125 µg/mL; in the assay with T. menta. 9129, 15.6 µg/mL.

Regarding `CCCCCCCCNc1cc[n+](CCCCCCCCCC[n+]2ccc(NCCCCCCCC)cc2)cc1` [Example 10C, 1,10-bis-[4-(octylamino)-1-pyridinium]decane bis(1-oxo-2-pyridinethiolate)], in the assay on S. Aureus Smith (18-20 hours at 37° C.), the “MIC S. Aureus Smith” value was 1.0 µg/mL. Moreover, the “MIC E. coli Vogel” value against E. coli Vogel (18-20 hours at 37° C.) stood at 1.0 µg/mL. The “MIC K. pneum. 39645” value against K. pneum. 39645 (18-20 hours at 37° C.) was 1.95 µg/mL. Further, the “MIC P. mirab. MGH-1” value in the assay with P. mirab. MGH-1 (18-20 hours at 37° C.) turned out to be 1.95 µg/mL. In the assay on Ps. aerug. MGH-2 (18-20 hours at 37° C.), the “MIC Ps. aerug. MGH-2” value stood at 3.9 µg/mL. In addition, the “MIC S. pyogen. C203” value in the assay on S. pyogen. C203 (18-20 hours at 37° C.) is 0.5 µg/mL. In addition, the “MIC A. niger 16404” value in the assay on A. niger 16404 (18-20 hours at 37° C.) was 1.95 µg/mL. In addition, in the assay on C. albicans 10231 (18-20 hours at 37° C.), the “MIC C. albicans 10231” value amounted to 1.0 µg/mL. Moreover, the “MIC T. menta. 9129” value with T. menta. 9129 (18-20 hours at 37° C.) is 1.0 µg/mL.

`Nc1cc[n+](CCCCCCCCCCCC[n+]2ccc(N)cc2)cc1` [V, 1,12-bis-(4-amino-1-pyridinium)dodecane dibromide, reference compound]: the MIC with S. Aureus Smith (18-20 hours at 37° C.) is 1.95 µg/mL; in the assay with E. coli Vogel (18-20 hours at 37° C.) it was 62.5 µg/mL; in the assay on K. pneum. 39645 (18-20 hours at 37° C.), above 62.5 µg/mL; in the assay with P. mirab. MGH-1 (18-20 hours at 37° C.), above 125 µg/mL; in the assay on Ps. aerug. MGH-2 (18-20 hours at 37° C.), above 62.5 µg/mL; with S. pyogen. C203 (18-20 hours at 37° C.), 1 µg/mL. Moreover, the figures for the minimal inhibitory concentration (MIC) with A. niger 16404 (18-20 hours at 37° C.), in the assay on C. albicans 10231 (18-20 hours at 37° C.) and in the assay on T. menta. 9129 (18-20 hours at 37° C.) were 31.3 µg/mL, 31.3 µg/mL and 3.9 µg/mL, respectively.

In the case of `Nc1cc[n+](CCCCCC[n+]2ccc(N)cc2)cc1` [IV, 1,6-bis-(4-amino-1-pyridinium)hexane dibromide, reference compound], the MIC was 125 µg/mL in the assay on S. Aureus Smith (18-20 hours at 37° C.); 250 µg/mL with E. coli Vogel (18-20 hours at 37° C.); above 500 µg/mL in the assay on K. pneum. 39645 (18-20 hours at 37° C.); above 500 µg/mL in the assay on P. mirab. MGH-1 (18-20 hours at 37° C.); above 500 µg/mL with Ps. aerug. MGH-2 (18-20 hours at 37° C.); 62.5 µg/mL in the assay with S. pyogen. C203 (18-20 hours at 37° C.). The MIC in the assay on A. niger 16404 (18-20 hours at 37° C.) was 500 µg/mL; in the assay with C. albicans 10231 (18-20 hours at 37° C.), above 500 µg/mL; in the assay with T. menta. 9129 (18-20 hours at 37° C.), above 500 µg/mL.

On to `Nc1cc[n+](CCCCCCCCC[n+]2ccc(N)cc2)cc1` [VII, 1,9-bis-(4-amino-1-pyridinium)nonane dibromide, reference compound], for which the MIC was 31.3 µg/mL with S. Aureus Smith (18-20 hours at 37° C.); 250 µg/mL in the assay on E. coli Vogel (18-20 hours at 37° C.); 500 µg/mL in the assay with K. pneum. 39645 (18-20 hours at 37° C.); above 500 µg/mL in the assay on P. mirab. MGH-1 (18-20 hours at 37° C.); above 500 µg/mL in the assay on Ps. aerug. MGH-2 (18-20 hours at 37° C.); 7.8 µg/mL in the assay with S. pyogen. C203 (18-20 hours at 37° C.). The minimal inhibitory concentration (MIC) is 250 µg/mL in the assay with A. niger 16404 (18-20 hours at 37° C.), 31.3 µg/mL with C. albicans 10231 (18-20 hours at 37° C.) and 15.6 µg/mL in the assay with T. menta. 9129 (18-20 hours at 37° C.).

As to `Nc1cc[n+](CCCC[n+]2ccc(N)cc2)cc1` [III, 1,4-bis-(4-amino-1-pyridinium)butane dibromide, reference compound], the MIC in the assay with S. Aureus Smith (18-20 hours at 37° C.) was 125 µg/mL; in the assay on E. coli Vogel (18-20 hours at 37° C.) it was 250 µg/mL; in the assay with K. pneum. 39645 (18-20 hours at 37° C.), above 500 µg/mL; in the assay with P. mirab. MGH-1 (18-20 hours at 37° C.), above 500 µg/mL; with Ps. aerug. MGH-2 (18-20 hours at 37° C.), above 500 µg/mL; in the assay on S. pyogen. C203 (18-20 hours at 37° C.) it was 62.5 µg/mL. Also, the MIC is 500 µg/mL with A. niger 16404 (18-20 hours at 37° C.), above 500 µg/mL in the assay with C. albicans 10231 (18-20 hours at 37° C.) and 500 µg/mL in the assay with T. menta. 9129 (18-20 hours at 37° C.).

As to `CC(CCCCCCCCC[n+]1ccc(N)cc1)[n+]1ccc(N)cc1` (stereo not drawn) [VI, 1,10-bis-(4-amino-1-pyridinium)-1-methyldecane dibromide, reference compound], the MIC with S. Aureus Smith (18-20 hours at 37° C.) is 15.6 µg/mL; in the assay on E. coli Vogel (18-20 hours at 37° C.) it was 250 µg/mL; with K. pneum. 39645 (18-20 hours at 37° C.), 500 µg/mL; in the assay on P. mirab. MGH-1 (18-20 hours at 37° C.) it was above 500 µg/mL; in the assay on Ps. aerug. MGH-2 (18-20 hours at 37° C.) it was above 500 µg/mL; with S. pyogen. C203 (18-20 hours at 37° C.), 15.6 µg/mL. Besides, the MIC was 250 µg/mL in the assay on A. niger 16404 (18-20 hours at 37° C.), 31.3 µg/mL with C. albicans 10231 (18-20 hours at 37° C.) and 15.6 µg/mL in the assay with T. menta. 9129 (18-20 hours at 37° C.).
